In this assay the target is T1, GALR3 septuple (Homo sapiens, UniProt O60755, A190V/A191F/C272L/G192S/L100F/Y103F/Y107H).
T1 construct: expressed in transfected cells; host or cells: HEK293 cells stably expressing pGlosensor-22F cAMP plasmid
T1 sequence (O60755 1-368 L100F/Y103F/Y107H/A190V/A191F/G192S/C272L): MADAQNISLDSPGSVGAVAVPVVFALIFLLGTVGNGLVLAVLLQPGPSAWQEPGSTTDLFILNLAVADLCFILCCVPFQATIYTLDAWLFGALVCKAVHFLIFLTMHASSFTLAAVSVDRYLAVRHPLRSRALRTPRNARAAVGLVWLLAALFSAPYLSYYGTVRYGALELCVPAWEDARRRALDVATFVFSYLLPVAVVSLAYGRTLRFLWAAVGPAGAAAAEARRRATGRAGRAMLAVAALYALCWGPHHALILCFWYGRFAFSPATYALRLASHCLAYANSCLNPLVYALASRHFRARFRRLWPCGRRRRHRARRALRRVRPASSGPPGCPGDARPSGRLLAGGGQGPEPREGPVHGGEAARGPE
The experiment in a line: SRE-luc luciferase assay, GALR3 septuple mutant. Conditions: SRE-luc in HEK293 Gqi cells, ligand 6 h, mean ± SE, SEM. Type of assay: cell-based. From the text:
For domain swapping between GALR2 and GALR3, individual cDNA fragments of interest were amplified by polymerase chain reaction (PCR) with Pfu polymerase (ELPIS Biotech, Daejeon, Korea) and two specific primers, one corresponding to the 5' or 3' end of the GALR2 or GALR3 cDNA and the other to the region of overlap between the two receptors. The two resulting fragments, one from GALR2 and the other from GALR3, were subjected to a second round of PCR to generate the chimeric cDNAs. To construct single, double-, triple-, pentuple-, hextuple-, and septuple-mutant receptors, amino acids of GALR3 were substituted for the amino acids at the corresponding positions in GALR2 using PCR-based site-directed mutagenesis. […]
For luciferase assays, HEK293 Gqi cells were seeded on 48-well plates at a density of 2.5 × 10^4 cells/well one day before transfection. […] The luciferase activity in 50 μl cell extract was determined using a luciferase assay system according to the standard protocol for the Synergy 2 Multi-Mode Microplate Reader (BioTek, Winooski, VT, USA).
Data analysis was performed by non-linear regression with a sigmoidal dose-response curve. The concentrations of agonists that induced half-maximal stimulation (EC50) were calculated using the GraphPad PRISM5 software (GraphPad software, Inc., San Diego, CA). […]

Usually EC50 stands for the concentration giving half of the maximal effect. Regarding `CSCC[C@H](NC(=O)[C@H](C)NC(=O)[C@H](CCC(N)=O)NC(=O)[C@@H]1CCCN1C(=O)[C@@H](NC(=O)[C@H](Cc1c[nH]c2ccccc12)NC(=O)[C@@H](N)CC(N)=O)[C@@H](C)O)C(=O)N[C@@H](CC(C)C)C(=O)N[C@@H](Cc1ccc(O)cc1)C(=O)N[C@@H](CC(C)C)C(=O)N[C@@H](CCCCN)C(=O)NCC(=O)N[C@@H](C)C(=O)N[C@@H](CCC(N)=O)C(N)=O` [SPX, reference compound], the EC50 came to 4.07 ± 1.12 nM.

Source of the values: PMC7108740, “Exploring the molecular structures that confer ligand selectivity for galanin type II and III receptors” (PLoS ONE, 2020).
